These results are taken from patent US9562031B1, “Phenethyldihydrobenzodioxolones and methods of use” (Sequoia Sciences, Inc., priority 2015, dated 2017).

The structures appear in SMILES notation. Where two headings read alike, the source gives them in different places.

Assay [1] has as its system NCI-H460 (large cell lung carcinoma) cells. The assay is described as follows: antiproliferation assay (72 h, CELLTITER 96), NCI-H460. In kind it is cell-based, human. To be noted: Homo sapiens, read-out: NCI-H460 IC50. The procedure: (§1) All of the compounds shown in Table 3-Table 8 below were prepared synthetically as described in EXAMPLE I. The compounds were tested for their ability to inhibit the proliferation of human cancer cells in vitro as described in the following paragraph. Table 3-Table 8 list the IC50 values in the M14 and NCI-H460 human cancer cell lines. IC50 is defined as the concentration of compound necessary to achieve 50% of the maximum growth inhibition.
(§2) For the antiproliferation assay, NCI-H460 (large cell lung carcinoma) or M14 (amelanotic melanoma) cells were grown in RPMI-1640 with 10% FBS supplemented with L-glutamine and HEPES. Cells were seeded into 96-well plates at 5×10^2 to 5×10^4 cells/well and allowed to adhere overnight; the medium was then removed. A stock solution of test compound in DMSO was diluted in medium to generate a series of working solutions. Aliquots (100 μl) of the working solutions were then added to the appropriate test wells to expose cells to the final concentrations of compound in a total volume of 100 μl. Seven different concentrations were tested, with 2-5 wells per concentration. Camptothecin was used as a positive control; wells containing vehicle without compound were used as negative controls. Plates were kept for 72 h in a 37° C., 5% CO2 incubator. After incubation, viable cells were detected with the CELLTITER 96 AQueous Non-Radioactive Cell Proliferation Assay (Promega), and IC50 values were determined using GraphPad Prism 5 software.

The subject of assay [2] is M14 (amelanotic melanoma) cells. Briefly: antiproliferation assay (72 h, CELLTITER 96), M14. Format: cell-based, human. To be noted: Homo sapiens. As to the method: as §1, §2

One may read the IC50 as the concentration that inhibits the measured activity by half. Regarding `C=CC[C@H]1C[C@]2([C@@H](C)Cc3ccc(OC)cc3OC(C)=O)OCOC2=CC1=O` [Compound 53, 2-((S)-2-((3aR,5S)-5-allyl-6-oxo-3a,4,5,6-tetrahydrobenzo[d][1,3]dioxol-3a-yl)propyl)-5-methoxyphenyl acetate], the IC50 in assay [1] (NCI-H460, Table 6) is 2.3 µM; in assay [2] (Table 6), 0.27 µM.
Consider `C=CC[C@H]1C[C@]2([C@H](C)Cc3ccc(OC)cc3Cl)OCOC2=CC1=O` [Compound 54, (6S,7aR)-6-allyl-7a-((R)-1-(2-chloro-4-methoxyphenyl)propan-2-yl)-7,7a-dihydrobenzo[d][1,3]dioxol-5(6H)-one], for which the IC50 in assay [1] (NCI-H460, Table 6) stood at 0.32 µM; in assay [2] (Table 6), 0.045 µM.
For `C=CC[C@H]1C[C@]2(C(C)Cc3cc(F)c(OC)c(F)c3)OCOC2=CC1=O` (stereo partly drawn) [Compound 55, (6S,7aR)-6-allyl-7a-(1-(3,5-difluoro-4-methoxyphenyl)propan-2-yl)-7,7a-dihydrobenzo[d][1,3]dioxol-5(6H)-one], the IC50 in assay [1] (NCI-H460, Table 6) stood at 3.8 µM; in assay [2] (Table 6), 3.3 µM.
With `COc1cc(F)c(CC(C)[C@]23C[C@H](C)C(=O)C=C2OCO3)cc1F` (stereo partly drawn) [Compound 56, (6S,7aR)-7a-(1-(2,5-difluoro-4-methoxyphenyl)propan-2-yl)-6-methyl-7,7a-dihydrobenzo[d][1,3]dioxol-5(6H)-one], the IC50 in assay [1] (NCI-H460, Table 7) was 0.43 µM; in assay [2] (Table 7), 0.14 µM.
Take `CC[C@H]1C[C@]2([C@@H](C)Cc3cc(F)c(OC)cc3F)OCOC2=CC1=O` [Compound 57]: the IC50 in assay [1] (NCI-H460, Table 7) is 0.2 µM; in assay [2] (Table 7), 0.14 µM.
As to `CC[C@H]1C[C@]2([C@H](C)Cc3cc(F)c(OC)cc3F)OCOC2=CC1=O` [Compound 58], the IC50 in assay [1] (NCI-H460, Table 7) stood at 0.44 µM; in assay [2] (Table 7) it was 0.29 µM.
The corresponding values for `CCC[C@H]1C[C@]2([C@@H](C)Cc3cc(O)c(OC)cc3F)OCOC2=CC1=O` [Compound 59] are 0.17 µM and 0.058 µM.
`CCC[C@H]1C[C@]2([C@H](C)Cc3cc(O)c(OC)cc3F)OCOC2=CC1=O` [Compound 60]: the IC50 was found to be 0.067 µM in assay [1] (NCI-H460, Table 7) and 0.0059 µM in assay [2] (Table 7).
For `C#CC[C@H]1C[C@]2([C@@H](C)Cc3ccc(OC)cc3F)OCOC2=CC1=O` [Compound 62, (6S,7aR)-7a-((S)-1-(2-fluoro-4-methoxyphenyl)propan-2-yl)-6-(prop-2-yn-1-yl)-7,7a-dihydrobenzo[d][1,3]dioxol-5(6H)-one], the half-inhibitory concentration (IC50) in assay [1] (NCI-H460, Table 7) was determined as 0.073 µM; in assay [2] (Table 7), 0.2 µM.
The corresponding values for `C=C(F)C[C@H]1C[C@]2([C@@H](C)Cc3cc(F)c(OC)cc3F)OCOC2=CC1=O` [Compound 64, (6R,7aR)-7a-((S)-1-(2,5-difluoro-4-methoxyphenyl)propan-2-yl)-6-(2-fluoroallyl)-7,7a-dihydrobenzo[d][1,3]dioxol-5(6H)-one] are 0.22 µM and 0.14 µM.
With `COC[C@H]1C[C@]2([C@@H](C)Cc3cc(O)c(OC)cc3F)OCOC2=CC1=O` [Compound 65, (6R,7aR)-7a-((S)-1-(2-fluoro-5-hydroxy-4-methoxyphenyl)propan-2-yl)-6-(methoxymethyl)-7,7a-dihydrobenzo[d][1,3]dioxol-5(6H)-one], the IC50 was 1.2 µM in assay [1] (NCI-H460, Table 7) and 0.64 µM in assay [2] (Table 7).
As to `COc1cc(F)c(C[C@H](C)[C@]23C[C@H](Cc4ccccc4)C(=O)C=C2OCO3)cc1O` [Compound 66, (6S,7aR)-6-benzyl-7a-((S)-1-(2-fluoro-5-hydroxy-4-methoxyphenyl)propan-2-yl)-7,7a-dihydrobenzo[d][1,3]dioxol-5(6H)-one], the IC50 in assay [1] (NCI-H460, Table 7) was 2.6 µM; in assay [2] (Table 7), 1.6 µM.
The corresponding values for `C/C=C/C[C@H]1C[C@]2([C@@H](C)Cc3ccc(OC)cc3F)OCOC2=CC1=O` [Compound 67, (6S,7aR)-6-((E)-but-2-en-1-yl)-7a-((S)-1-(2-fluoro-4-methoxyphenyl)propan-2-yl)-7,7a-dihydrobenzo[d][1,3]dioxol-5(6H)-one] are 0.25 µM and 0.21 µM.
Regarding `COc1ccc(C[C@H](C)[C@]23C[C@H](CC=C(F)F)C(=O)C=C2OCO3)c(F)c1` [Compound 68, (6S,7aR)-6-(3,3-difluoroallyl)-7a-((S)-1-(2-fluoro-4-methoxyphenyl)propan-2-yl)-7,7a-dihydrobenzo[d][1,3]dioxol-5(6H)-one], the IC50 stood at 0.82 µM in assay [1] (NCI-H460, Table 7) and 0.86 µM in assay [2] (Table 7).
Turning to `COc1cc(F)c(C[C@H](C)[C@]23C[C@H](CCCF)C(=O)C=C2OCO3)cc1O` [Compound 69, (6S,7aR)-7a-((S)-1-(2-fluoro-5-hydroxy-4-methoxyphenyl)propan-2-yl)-6-(3-fluoropropyl)-7,7a-dihydrobenzo[d][1,3]dioxol-5(6H)-one], the IC50 was determined as 0.51 µM in assay [1] (NCI-H460, Table 7) and 0.57 µM in assay [2] (Table 7).
The corresponding values for `CCC[C@H]1C[C@]2([C@@H](C)Cc3ccc(OC)c(OC)c3)OCOC2=CC1=O` [Compound 70, (6S,7aR)-7a-((S)-1-(3,4-dimethoxyphenyl)propan-2-yl)-6-propyl-7,7a-dihydrobenzo[d][1,3]dioxol-5(6H)-one] are more than 4 µM and 7.4 µM.
In the case of `C=CC[C@H]1C[C@]2(CCc3ccc(OC)c(OC)c3)OCOC2=CC1=O` [Compound 72, (6S,7aS)-6-allyl-7a-(3,4-dimethoxyphenethyl)-7,7a-dihydrobenzo[d][1,3]dioxol-5(6H)-one], the concentration for half-maximal inhibition (IC50) was found to be 3.2 µM in assay [1] (NCI-H460, Table 8) and 2 µM in assay [2] (Table 8).
In the case of `C=CC[C@H]1C[C@]2([C@@H](C)Cc3ccc(OC)c(OC(=O)N(C)C)c3)OCOC2=CC1=O` [Compound 73, 5-((S)-2-((3aR,5S)-5-allyl-6-oxo-3a,4,5,6-tetrahydrobenzo[d][1,3]dioxol-3a-yl)propyl)-2-methoxyphenyl dimethylcarbamate], the IC50 was more than 20 µM in assay [1] (NCI-H460, Table 4) and more than 20 µM in assay [2] (Table 4).
Consider `C/C=C/[C@H]1C[C@]2([C@H](C)Cc3cc(O)c(OC)cc3F)OCOC2=CC1=O` [Compound 74, (6R,7aR)-7a-((R)-1-(2-fluoro-5-hydroxy-4-methoxyphenyl)propan-2-yl)-6-((E)-prop-1-en-1-yl)-7,7a-dihydrobenzo[d][1,3]dioxol-5(6H)-one], for which the IC50 in assay [1] (NCI-H460, Table 7) is 0.29 µM; in assay [2] (Table 7), 0.12 µM.
As for `C/C=C/[C@H]1C[C@]2([C@@H](C)Cc3cc(O)c(OC)cc3F)OCOC2=CC1=O` [Compound 75, (6R,7aR)-7a-((S)-1-(2-fluoro-5-hydroxy-4-methoxyphenyl)propan-2-yl)-6-((E)-prop-1-en-1-yl)-7,7a-dihydrobenzo[d][1,3]dioxol-5 (6H)-one], the IC50 in assay [1] (NCI-H460, Table 7) worked out at 0.86 µM; in assay [2] (Table 7), 0.51 µM.
For `COc1cc(F)c(C[C@H](C)[C@]23C[C@H](CCSC)C(=O)C=C2OCO3)cc1O` [Compound 76, (6R,7aR)-7a-((S)-1-(2-fluoro-5-hydroxy-4-methoxyphenyl)propan-2-yl)-6-(2-(methylthio)ethyl)-7,7a-dihydrobenzo[d][1,3]dioxol-5(6H)-one], the IC50 in assay [1] (NCI-H460, Table 7) amounted to 0.45 µM; in assay [2] (Table 7) it was 0.3 µM.
On to `CC[C@H](C)[C@H]1C[C@]2([C@@H](C)Cc3cc(O)c(OC)cc3F)OCOC2=CC1=O` [Compound 77, (6R,7aR)-6-((S)-sec-butyl)-7a-((S)-1-(2-fluoro-5-hydroxy-4-methoxyphenyl)propan-2-yl)-7,7a-dihydrobenzo[d][1,3]dioxol-5(6H)-one], for which the IC50 in assay [1] (NCI-H460, Table 7) worked out at 0.55 µM; in assay [2] (Table 7) it was 0.11 µM.
For the compound `COCC[C@H]1C[C@]2([C@@H](C)Cc3cc(O)c(OC)cc3F)OCOC2=CC1=O` [Compound 78, (6S,7aR)-7a-((S)-1-(2-fluoro-5-hydroxy-4-methoxyphenyl)propan-2-yl)-6-(2-methoxyethyl)-7,7a-dihydrobenzo[d][1,3]dioxol-5(6H)-one], the IC50 was 0.27 µM in assay [1] (NCI-H460, Table 7) and 0.19 µM in assay [2] (Table 7).
As for `C=C(Cl)C[C@H]1C[C@]2([C@@H](C)Cc3ccc(OC)cc3F)OCOC2=CC1=O` [Compound 79, (6R,7aR)-6-(2-chloroallyl)-7a-((S)-1-(2-fluoro-4-methoxyphenyl)propan-2-yl)-7,7a-dihydrobenzo[d][1,3]dioxol-5(6H)-one], the IC50 in assay [1] (NCI-H460, Table 7) stood at 2.5 µM; in assay [2] (Table 7) it was 1.3 µM.
For `C=C(C)C[C@H]1C[C@]2([C@@H](C)Cc3cc(O)c(OC)cc3F)OCOC2=CC1=O` [Compound 80, (6S,7aR)-7a-((S)-1-(2-fluoro-5-hydroxy-4-methoxyphenyl)propan-2-yl)-6-(2-methylallyl)-7,7a-dihydrobenzo[d][1,3]dioxol-5(6H)-one], the IC50 in assay [1] (NCI-H460, Table 7) stood at 0.37 µM; in assay [2] (Table 7), 0.22 µM.
`C=CC[C@H]1C[C@]2([C@@H](C)Cc3cc(F)c(OC)cc3F)O[C@H](C)OC2=CC1=O` [Compound 82, (2R,6S,7aR)-6-allyl-7a-((S)-1-(2,5-difluoro-4-methoxyphenyl)propan-2-yl)-2-methyl-7,7a-dihydrobenzo[d][1,3]dioxol-5(6H)-one]: the concentration for half-maximal inhibition (IC50) in assay [1] (NCI-H460, Table 8) is 5.2 µM; in assay [2] (Table 8), more than 20 µM.
